For one compound, Organoid growth and Colonic motor activity results are on record in patent US20240066018A1 (priority 2022, published 2024).

Test [1] relates to primary colon cancer samples from patients with high M3 receptor expression grown as organoids.
The conditions of test [2]: patients with irritable bowel syndrome; cited from earlier work.

In the case of `c1ccc(C(O[C@@H]2CCCN(CCc3ccc4c(c3)OCO4)C2)c2ccccc2)cc1` [zamifenacin], the Organoid growth entry in test [1] is given as “inhibited”. In test [2], the Colonic motor activity result is reported as “reduce colonic motor activity”.
